Activity calls are given as the source filed them. The rule behind the calls is not given here. Numbered stars: 1 amine (or outer) side, 2 acyl side, 3 side chain; on linkers, the order of the positions; unused ones are H or OH. Square brackets hold non-standard residues; d marks the D form. Peptide text beside a SMILES is read from it. * marks the point of attachment. Phe(4-CH2SO3H) = N[C@@H](Cc1ccc(CS(=O)(=O)O)cc1)C(=O)O; C20 diacid = O=C(O)CCCCCCCCCCCCCCCCCCC(=O)*; sY = N[C@@H](Cc1ccc(OS(=O)(=O)O)cc1)C(=O)O; C18 diacid = O=C(O)CCCCCCCCCCCCCCCCC(=O)*; NMe1Nal = CN[C@@H](Cc1cccc2ccccc12)C(=O)O; γGlu = O=C(O)[C@H](CCC(=O)[*:2])N[*:1]; 1Nal = N[C@@H](Cc1cccc2ccccc12)C(=O)O; C14 diacid = O=C(O)CCCCCCCCCCCCC(=O)*; NMeF = CN[C@@H](Cc1ccccc1)C(=O)O; NMeD = CN[C@@H](CC(=O)O)C(=O)O; dNMeD = CN[C@H](CC(=O)O)C(=O)O; Nle = CCCC[C@H](N)C(=O)O; X1 = O=C(Cc1ccc(O)cc1)*; AEEA = NCCOCCOCC(=O)O
Columns and labels:
[1] = molecular target: T1, Cholecystokinin receptor type A (Homo sapiens) (UniProt P32238); experiment: (§1) Displacement of [125I]-CCK-8 from human CCK1R expressed in human 1321N1 cell membranes after 2 hrs by SPA assay
T1 sequence (whole entry): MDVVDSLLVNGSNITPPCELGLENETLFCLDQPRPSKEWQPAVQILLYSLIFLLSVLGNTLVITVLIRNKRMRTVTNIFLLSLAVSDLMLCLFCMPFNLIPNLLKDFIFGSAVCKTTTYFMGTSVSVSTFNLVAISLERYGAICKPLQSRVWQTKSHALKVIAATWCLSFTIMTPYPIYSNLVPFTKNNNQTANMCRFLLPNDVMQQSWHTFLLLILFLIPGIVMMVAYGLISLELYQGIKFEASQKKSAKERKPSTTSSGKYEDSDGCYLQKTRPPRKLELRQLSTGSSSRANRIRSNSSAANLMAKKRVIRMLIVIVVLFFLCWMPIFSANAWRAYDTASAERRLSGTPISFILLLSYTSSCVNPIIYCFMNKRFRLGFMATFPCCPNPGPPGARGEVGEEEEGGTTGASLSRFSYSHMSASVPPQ

[2] = molecular target: T2, Gastrin/cholecystokinin type B receptor (Homo sapiens) (UniProt P32239); experiment: (§2) Displacement of [125I]-CCK-8 from human CCK2R expressed in human 1321N1 cell membranes after 2 hrs by SPA assay
T2 sequence (whole entry): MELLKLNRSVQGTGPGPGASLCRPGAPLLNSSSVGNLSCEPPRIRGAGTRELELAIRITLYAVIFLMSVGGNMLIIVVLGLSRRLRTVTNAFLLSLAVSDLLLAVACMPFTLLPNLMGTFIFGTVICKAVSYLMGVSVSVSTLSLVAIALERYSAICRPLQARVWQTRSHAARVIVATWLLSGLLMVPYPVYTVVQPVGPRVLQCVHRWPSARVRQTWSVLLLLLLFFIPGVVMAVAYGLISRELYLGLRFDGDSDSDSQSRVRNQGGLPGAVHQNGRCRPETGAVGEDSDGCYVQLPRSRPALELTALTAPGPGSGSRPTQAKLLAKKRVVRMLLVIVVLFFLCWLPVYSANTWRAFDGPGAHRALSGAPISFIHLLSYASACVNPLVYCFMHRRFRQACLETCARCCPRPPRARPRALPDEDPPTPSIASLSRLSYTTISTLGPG

[3] = molecular target: T1, Cholecystokinin receptor type A (Homo sapiens); experiment: (§3) Agonist activity at human CCK1R expressed in human 1321N1 cells assessed as IP1 accumulation after 1 hr by HTRF assay; type: functional, cell-based
[4] = molecular target: T2, Gastrin/cholecystokinin type B receptor (Homo sapiens); experiment: (§4) Agonist activity at human CCK2R expressed in human 1321N1 cells assessed as IP1 accumulation after 1 hr by HTRF assay; type: functional, cell-based
[5] = molecular target: T3, Cholecystokinin receptor type A (Homo sapiens, UniProt P32238); experiment: as §1
T3 sequence (P32238 whole entry): T1 sequence (whole entry)

[6] = Terminal half life in Ellegaard Gottingen minipig at 5 nmol/kg, iv by LC-MS/MS analysis; type: ADME, organism-based, Sus scrofa; settings: pig, in vivo, read-out: beta t1/2 (converted)
[7] = molecular target: T3, Cholecystokinin receptor type A; experiment: as §3; type: functional, cell-based
[8] = molecular target: T4, Gastrin/cholecystokinin type B receptor (Homo sapiens, UniProt P32239); experiment: as §4; type: functional, cell-based
T4 sequence (P32239 whole entry): T2 sequence (whole entry)

[9] = molecular target: T4, Gastrin/cholecystokinin type B receptor; experiment: as §2

Structure (SMILES)	IC50 [5]	half-life [6]	EC50 [7]	EC50 [8]	IC50 [9]	also measured
CCCC[C@H](NC(=O)[C@H](Cc1ccc(OS(=O)(=O)O)cc1)NC(=O)[C@H](CC(=O)O)NC(=O)COCCOCCNC(=O)COCCOCCNC(=O)CC[C@H](NC(=O)CCCCCCCCCCCCCCCCC(=O)O)C(=O)O)C(=O)NCC(=O)N[C@@H](Cc1c[nH]c2ccccc12)C(=O)N[C@@H](Cc1ccccc1)C(=O)N[C@@H](CC(=O)O)C(=O)N[C@@H](Cc1ccccc1)C(N)=O ({C18 diacid-γGlu-AEEA-AEEA}-D[sY][Nle]GWFDF-NH2)	–	–	–	–	–	pIC50 [1]: inactive; pIC50 [2]: inactive; pEC50 [3]: inactive; pEC50 [4]: inactive
CCCC[C@H](NC(=O)[C@H](Cc1ccc(OS(=O)(=O)O)cc1)NC(=O)[C@H](CC(=O)O)NC(=O)COCCOCCNC(=O)COCCOCCNC(=O)CC[C@H](NC(=O)CCCCCCCCCCCCCCCCC(=O)O)C(=O)O)C(=O)NCC(=O)N[C@@H](Cc1c[nH]c2ccccc12)C(=O)N[C@@H](CCC(=O)O)C(=O)N[C@@H](CC(=O)O)C(=O)N[C@@H](Cc1ccccc1)C(N)=O ({C18 diacid-γGlu-AEEA-AEEA}-D[sY][Nle]GWEDF-NH2)	–	–	–	–	–	pIC50 [1]: inactive; pIC50 [2]: inactive; pEC50 [3]: inactive; pEC50 [4]: inactive
CCCC[C@H](NC(=O)[C@H](Cc1ccc(OS(=O)(=O)O)cc1)NC(=O)[C@H](CC(=O)O)NC(=O)COCCOCCNC(=O)COCCOCCNC(=O)CC[C@H](NC(=O)CCCCCCCCCCCCCCCCC(=O)O)C(=O)O)C(=O)NCC(=O)N[C@@H](Cc1c[nH]c2ccccc12)C(=O)N[C@@H](CO)C(=O)N[C@@H](CC(=O)O)C(=O)N[C@@H](Cc1ccccc1)C(N)=O ({C18 diacid-γGlu-AEEA-AEEA}-D[sY][Nle]GWSDF-NH2)	–	–	–	–	–	pIC50 [1]: inactive; pIC50 [2]: inactive; pEC50 [3]: inactive; pEC50 [4]: inactive
CCCC[C@H](NC(=O)[C@H](Cc1c[nH]c2ccccc12)NC(=O)CNC(=O)[C@H](CC(C)C)NC(=O)[C@H](Cc1ccc(OS(=O)(=O)O)cc1)NC(=O)[C@H](CC(=O)O)NC(=O)CCCCCCCCCCCCCCCCC(=O)O)C(=O)N(C)[C@H](CC(=O)O)C(=O)N(C)[C@@H](Cc1ccccc1)C(N)=O	0.107 nM	2.6 h	–	–	–	–
CCCC[C@H](NC(=O)[C@H](Cc1ccc(OS(=O)(=O)O)cc1)NC(=O)[C@H](CC(=O)O)NC(=O)COCCOCCNC(=O)COCCOCCNC(=O)CC[C@H](NC(=O)CCCCCCCCCCCCCCCCC(=O)O)C(=O)O)C(=O)NCC(=O)N[C@@H](Cc1c[nH]c2ccccc12)C(=O)N[C@@H](CCCC)C(=O)N(C)[C@H](CC(=O)O)C(=O)N[C@@H](Cc1cccc2ccccc12)C(N)=O ({C18 diacid-γGlu-AEEA-AEEA}-D[sY][Nle]GW[Nle][dNMeD][1Nal]-NH2)	0.0741 nM	140 h	0.363 nM	89.1 nM	–	–
CCCC[C@H](NC(=O)[C@H](Cc1c[nH]c2ccccc12)NC(=O)CNC(=O)[C@H](CC(C)C)NC(=O)[C@H](Cc1ccc(CS(=O)(=O)O)cc1)NC(=O)[C@H](CC(=O)O)NC(=O)COCCOCCNC(=O)COCCOCCNC(=O)CC[C@H](NC(=O)CCCCCCCCCCCCCCCCCCC(=O)O)C(=O)O)C(=O)N(C)[C@H](CC(=O)O)C(=O)N(C)[C@@H](Cc1ccccc1)C(N)=O ({C20 diacid-γGlu-AEEA-AEEA}-D[Phe(4-CH2SO3H)]LGW[Nle][dNMeD][NMeF]-NH2)	0.0407 nM	153 h	0.372 nM	–	–	–
CCCC[C@H](NC(=O)[C@H](Cc1c[nH]c2ccccc12)NC(=O)CNC(=O)[C@H](CC(C)C)NC(=O)[C@H](Cc1ccc(CS(=O)(=O)O)cc1)NC(=O)[C@H](CC(=O)O)NC(=O)COCCOCCNC(=O)COCCOCCNC(=O)CC[C@H](NC(=O)CCCCCCCCCCCCC(=O)O)C(=O)O)C(=O)N(C)[C@H](CC(=O)O)C(=O)N(C)[C@@H](Cc1ccccc1)C(N)=O ({C14 diacid-γGlu-AEEA-AEEA}-D[Phe(4-CH2SO3H)]LGW[Nle][dNMeD][NMeF]-NH2)	0.155 nM	2 h	0.182 nM	–	–	–
CCCC[C@H](NC(=O)[C@H](Cc1ccc(O)cc1)NC(=O)[C@H](CC(=O)O)NC(=O)COCCOCCNC(=O)COCCOCCNC(=O)CC[C@H](NC(=O)CCCCCCCCCCCCCCCCC(=O)O)C(=O)O)C(=O)NCC(=O)N[C@@H](Cc1c[nH]c2ccccc12)C(=O)N[C@@H](CCCCNC(=O)Nc1ccccc1C)C(=O)N[C@@H](CC(=O)O)C(=O)N(C)[C@@H](Cc1ccccc1)C(N)=O	0.339 nM	–	0.107 nM	5.01 nM	759 nM	–
CCCC[C@H](NC(=O)[C@H](Cc1c[nH]c2ccccc12)NC(=O)CNC(=O)[C@H](CC(C)C)NC(=O)[C@H](Cc1ccc(OS(=O)(=O)O)cc1)NC(=O)[C@H](CC(=O)O)NC(=O)COCCOCCNC(=O)COCCOCCNC(=O)CC[C@H](NC(=O)CCCCCCCCCCCCCCCCC(=O)O)C(=O)O)C(=O)N[C@@H](CC(=O)O)C(=O)N[C@@H](Cc1ccccc1)C(N)=O	0.275 nM	–	0.129 nM	0.501 nM	0.166 nM	–
CCCC[C@H](NC(=O)[C@H](Cc1c[nH]c2ccccc12)NC(=O)CNC(=O)[C@H](CC(C)C)NC(=O)[C@H](Cc1ccc(OS(=O)(=O)O)cc1)NC(=O)[C@H](CC(=O)O)NC(=O)COCCOCCNC(=O)COCCOCCNC(=O)CC[C@H](NC(=O)CCCCCCCCCCCCCCCCC(=O)O)C(=O)O)C(=O)N(C)[C@H](CC(=O)O)C(=O)N(C)[C@@H](Cc1cccc2ccccc12)C(N)=O ({C18 diacid-γGlu-AEEA-AEEA}-D[sY]LGW[Nle][dNMeD][NMe1Nal]-NH2)	–	147 h	0.407 nM	151 nM	2040 nM	–
CCCC[C@H](NC(=O)[C@H](Cc1ccc(OS(=O)(=O)O)cc1)NC(=O)[C@H](CC(=O)O)NC(=O)COCCOCCNC(=O)COCCOCCNC(=O)CC[C@H](NC(=O)CCCCCCCCCCCCCCCCC(=O)O)C(=O)O)C(=O)NCC(=O)N[C@@H](Cc1c[nH]c2ccccc12)C(=O)N[C@@H](CCCC)C(=O)N[C@@H](CC(=O)O)C(=O)N[C@@H](Cc1ccc(O)cc1)C(N)=O ({C18 diacid-γGlu-AEEA-AEEA}-D[sY][Nle]GW[Nle]DY-NH2)	9.12 nM	–	0.977 nM	0.324 nM	0.132 nM	–
CC(C)C[C@H](NC(=O)[C@H](Cc1ccc(OS(=O)(=O)O)cc1)NC(=O)[C@H](CC(=O)O)NC(=O)COCCOCCNC(=O)COCCOCCNC(=O)CC[C@H](NC(=O)CCCCCCCCCCCCCCCCC(=O)O)C(=O)O)C(=O)NCC(=O)N[C@@H](Cc1c[nH]c2ccccc12)C(=O)N[C@@H](Cc1ccccc1)C(=O)N(C)[C@@H](CC(=O)O)C(=O)N(C)[C@@H](Cc1ccccc1)C(N)=O ({C18 diacid-γGlu-AEEA-AEEA}-D[sY]LGWF[NMeD][NMeF]-NH2)	–	–	–	–	–	pIC50 [5]: 7.79; pIC50 [9]: < 5; pEC50 [7]: 8.79; pEC50 [8]: < 6
CCCC[C@H](NC(=O)[C@H](Cc1ccc(OS(=O)(=O)O)cc1)NC(=O)[C@H](CC(=O)O)NC(=O)COCCOCCNC(=O)COCCOCCNC(=O)CC[C@H](NC(=O)CCCCCCCCCCCCCCCCC(=O)O)C(=O)O)C(=O)NCC(=O)N[C@@H](Cc1c[nH]c2ccccc12)C(=O)N[C@@H](CCC(N)=O)C(=O)N[C@@H](CC(=O)O)C(=O)N[C@@H](Cc1ccccc1)C(N)=O ({C18 diacid-γGlu-AEEA-AEEA}-D[sY][Nle]GWQDF-NH2)	0.933 nM	–	0.162 nM	0.417 nM	2.04 nM	–
CCCC[C@H](NC(=O)Cc1ccc(O)cc1)C(=O)NCC(=O)N[C@@H](Cc1c[nH]c2ccccc12)C(=O)N[C@@H](CCCC)C(=O)N(C)[C@H](CC(=O)O)C(=O)N[C@@H](Cc1ccccc1)C(N)=O (X1-[Nle]GW[Nle][dNMeD]F-NH2)	7.08 nM	–	1.55 nM	> 1000 nM	> 10000 nM	–
